Data taken from paper PMC3043358 (The Prostate, 2010).

Target: DNMT1 (Homo sapiens, UniProt P26358)
Type: biochemical

Sequence of DNMT1 (P26358 whole entry): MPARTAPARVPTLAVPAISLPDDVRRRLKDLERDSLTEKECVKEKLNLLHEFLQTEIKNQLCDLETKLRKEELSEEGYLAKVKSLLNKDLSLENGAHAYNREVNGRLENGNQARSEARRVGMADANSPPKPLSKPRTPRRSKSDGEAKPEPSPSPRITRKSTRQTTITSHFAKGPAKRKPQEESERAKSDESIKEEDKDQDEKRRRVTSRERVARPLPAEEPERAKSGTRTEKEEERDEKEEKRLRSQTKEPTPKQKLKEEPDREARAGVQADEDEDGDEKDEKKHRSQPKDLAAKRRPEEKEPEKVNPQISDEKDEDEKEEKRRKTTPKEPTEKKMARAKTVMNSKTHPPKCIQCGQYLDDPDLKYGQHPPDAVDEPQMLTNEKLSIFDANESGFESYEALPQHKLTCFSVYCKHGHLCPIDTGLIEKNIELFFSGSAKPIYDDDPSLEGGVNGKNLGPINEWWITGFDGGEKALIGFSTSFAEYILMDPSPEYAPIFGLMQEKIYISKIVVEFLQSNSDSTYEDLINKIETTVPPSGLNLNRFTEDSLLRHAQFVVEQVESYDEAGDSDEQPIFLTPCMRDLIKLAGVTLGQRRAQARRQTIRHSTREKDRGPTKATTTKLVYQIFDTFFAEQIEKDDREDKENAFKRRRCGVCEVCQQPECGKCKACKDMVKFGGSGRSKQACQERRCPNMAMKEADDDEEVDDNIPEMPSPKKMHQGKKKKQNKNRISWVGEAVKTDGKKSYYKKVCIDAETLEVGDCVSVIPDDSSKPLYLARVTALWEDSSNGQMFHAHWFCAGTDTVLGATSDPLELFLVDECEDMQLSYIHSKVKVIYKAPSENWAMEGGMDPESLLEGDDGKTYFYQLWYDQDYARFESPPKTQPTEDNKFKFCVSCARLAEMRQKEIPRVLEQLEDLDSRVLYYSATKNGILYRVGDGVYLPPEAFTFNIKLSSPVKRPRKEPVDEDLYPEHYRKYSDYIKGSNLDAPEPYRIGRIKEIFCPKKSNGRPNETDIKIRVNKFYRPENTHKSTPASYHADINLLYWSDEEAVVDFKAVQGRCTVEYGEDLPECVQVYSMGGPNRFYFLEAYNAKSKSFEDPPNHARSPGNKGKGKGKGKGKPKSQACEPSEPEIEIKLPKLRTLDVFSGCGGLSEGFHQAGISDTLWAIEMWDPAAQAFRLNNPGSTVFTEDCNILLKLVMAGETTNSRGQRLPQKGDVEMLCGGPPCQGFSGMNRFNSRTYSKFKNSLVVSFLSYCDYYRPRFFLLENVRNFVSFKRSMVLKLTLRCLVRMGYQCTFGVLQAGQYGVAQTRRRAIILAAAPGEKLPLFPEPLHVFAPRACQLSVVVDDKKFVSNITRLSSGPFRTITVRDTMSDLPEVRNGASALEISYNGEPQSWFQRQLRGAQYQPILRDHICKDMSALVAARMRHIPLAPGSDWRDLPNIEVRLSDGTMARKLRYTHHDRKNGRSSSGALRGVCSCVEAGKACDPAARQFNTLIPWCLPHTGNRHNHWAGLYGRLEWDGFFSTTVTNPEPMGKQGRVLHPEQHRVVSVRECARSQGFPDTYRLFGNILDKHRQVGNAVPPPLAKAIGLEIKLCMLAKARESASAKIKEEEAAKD

## CCN(CC)C(=S)SSC(=S)N(CC)CC [DSF, Disulfiram]
  in vitro methyltransferase assay, tritium incorporation from 3H-AdoMet into hemi: 95% reduction of activity at 200
